US11352350B2, “IRAK degraders and uses thereof” (Kymera Therapeutics, Inc., priority 2018, dated 2022)
Where two headings read alike, the source gives them in different places.

Target: IRAK4 (Homo sapiens (Human), UniProt Q9NWZ3)
Experiment: IRAK4 MSD degradation in OCI-LY10
Type: cell-based
Method: Degradation of IRAK4 in OCI-LY10 was quantitatively measured using Meso Scale Discovery technology. […] Compounds were then added to the assay plates with a final top concentration of 1 to 10 μM in a 1:3 dilution series with total of 8 doses. The assay plates were then incubated for 4 to 24 hours at 37° C. under 5% CO2. […] To prepare MSD assay plates (Meso Scale Discovery Catalog number L15XA-3), the plates were coated with […] capture antibody (mouse Anti-IRAK4 antibody [2H9], ab119942) in PBS, at 40 μL/well. […] Cell lysates were then added to MSD assay plates and the plates were incubated at room temperature for 1 hour. The plates were then washed 3 times with 150 μL/well TBST buffer and 25 μL/well primary detection antibody (rabbit Anti-IRAK4 antibody [Y279], from Abcam. Catalog number ab32511, […]). The assay plates were then incubated at room temperature for 1 hour, washed 3 times with 150 μL/well TBST buffer and 25 µL/well secondary detection antibody, SULFO-TAG anti-rabbit antibody were added (anti rabbit antibody from Meso Scale Discovery, Catalog number R32AB-1, 1 μg/mL). The assay plates were then incubated at room temperature for 1 hour, washed 3 times with 150 μL/well TB ST buffer, and 150 μL/well MSD reading buffer (Meso Scale Discovery catalog number R92TC-2) was added. The plates were then analyzed by a MSD reader (Meso Scale Discovery, Model Quick Plex SQ 120). The data was then analyzed by software Prism 7.0 from GraphPad and the dose-depended IRAK4 degradation were fit using a three-parameter logistic equation to calculate DC50.

[1] = OCI-LY10, 4 hrs, MSD, read-out: IRAK4 MSD degradation in OCI-LY10 at 4 hrs: Average external-Abs DC50
[2] = OCI-LY10, 24 hrs, MSD, read-out: IRAK4 MSD degradation in OCI-LY10 at 24 hrs: Average external-Abs DC50

Chain of IRAK4 (Q9NWZ3 whole entry): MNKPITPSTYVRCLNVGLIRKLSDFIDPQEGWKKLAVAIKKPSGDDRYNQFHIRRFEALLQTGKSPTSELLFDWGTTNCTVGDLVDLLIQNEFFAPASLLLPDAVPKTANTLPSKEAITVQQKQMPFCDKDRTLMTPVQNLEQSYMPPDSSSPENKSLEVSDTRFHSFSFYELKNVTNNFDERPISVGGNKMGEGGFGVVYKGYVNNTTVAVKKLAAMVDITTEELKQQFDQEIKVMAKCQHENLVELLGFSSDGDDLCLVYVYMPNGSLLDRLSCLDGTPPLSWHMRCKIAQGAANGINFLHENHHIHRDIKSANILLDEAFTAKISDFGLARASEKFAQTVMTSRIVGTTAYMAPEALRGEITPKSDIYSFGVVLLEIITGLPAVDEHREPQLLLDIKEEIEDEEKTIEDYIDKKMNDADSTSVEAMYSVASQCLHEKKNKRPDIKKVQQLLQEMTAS

SMILES	DC50 [1] [nM]	also measured
Cn1c(=O)n(C2CCC(=O)NC2=O)c2cccc(CCCOCCOCCOCCOCC(=O)N3CCN([C@H]4CC[C@H](Nc5ncnn6ccc(C7CCOCC7)c56)CC4)CC3)c21 (stereo partly drawn) [I-19]	> 1000	DC50 [2]: > 1000 nM
CN(CCC1CCN(Cc2cccc3c2n(C)c(=O)n3C2CCC(=O)NC2=O)CC1)C[C@H]1CC[C@H](n2cc(NC(=O)c3coc(-c4ccnc(NCC5CC5)c4)n3)c(C(F)F)n2)CC1 (stereo partly drawn) [I-79]	10 to 100	–
CN(CCOCCNCc1ccc2c(c1)n(C)c(=O)n2C1CCC(=O)NC1=O)C(=O)[C@H]1CC[C@H](n2cc(NC(=O)c3coc(-c4ccnc(NCC5CC5)c4)n3)c(C(F)F)n2)CC1 (stereo partly drawn) [I-55]	< 10	–
CN(C[C@@H]1CN(Cc2cccc3c2n(C)c(=O)n3C2CCC(=O)NC2=O)CCO1)C[C@H]1CC[C@H](n2cc(NC(=O)c3coc(-c4ccnc(NCC5CC5)c4)n3)c(C(F)F)n2)CC1 (stereo partly drawn) [I-78]	10 to 100	–
CN(CC1CCN(CCC#Cc2ccc3c(c2)n(C)c(=O)n3C2CCC(=O)NC2=O)CC1)C[C@H]1CC[C@H](n2cc(NC(=O)c3coc(-c4ccnc(NCC5CC5)c4)n3)c(C(F)F)n2)CC1 (stereo partly drawn) [I-57]	< 10	–
CN(CCCCc1cccc2c1n(C)c(=O)n2C1CCC(=O)NC1=O)C[C@H]1CC[C@H](n2cc(NC(=O)c3coc(-c4ccnc(NCC5CC5)c4)n3)c(C(F)F)n2)CC1 (stereo partly drawn) [I-66]	< 10	–
O=C1CCC(n2c3ccc(CCCN4CC5(CCN(C(=O)[C@H]6CC[C@H](n7cc(NC(=O)c8cnn9ccc(N%10C[C@H]%11C[C@@H]%10CO%11)nc89)c(C(F)F)n7)CC6)CC5)C4)cc3c3cccnc32)C(=O)N1 (stereo partly drawn) [I-388]	10 to 100	–
CN(CCCOCCCc1cccc2c1n(C)c(=O)n2C1CCC(=O)NC1=O)C[C@H]1CC[C@H](n2cc(NC(=O)c3coc(-c4ccncc4)n3)c(C(F)F)n2)CC1 (stereo partly drawn) [I-69]	100 to 1000	–
Cn1c(=O)n(C2CCC(=O)NC2=O)c2cccc(CCCO[C@H]3CCN(C[C@H]4CC[C@H](n5cc(NC(=O)c6coc(-c7ccnc(NCC8CC8)c7)n6)c(C(F)F)n5)CC4)C3)c21 (stereo partly drawn) [I-72]	10 to 100	–
CNc1cc(-c2nc(C(=O)Nc3cn([C@H]4CC[C@H](CN(C)CCCOCCCc5cccc6c5n(C)c(=O)n6C5CCC(=O)NC5=O)CC4)nc3C(F)F)co2)ccn1 (stereo partly drawn) [I-68]	10 to 100	–
Cn1c(=O)n(C2CCC(=O)NC2=O)c2cccc(CN3CCC(CC4CCN(C[C@H]5CC[C@H](n6cc(NC(=O)c7coc(-c8ccnc(NCC9CC9)c8)n7)c(C(F)F)n6)CC5)CC4)CC3)c21 (stereo partly drawn) [I-74]	< 10	–
CN(CCCOCCCc1cccc2c1n(C)c(=O)n2C1CCC(=O)NC1=O)C[C@H]1CC[C@H](n2cc(NC(=O)c3cccc(C(F)(F)F)n3)c(C(C)(C)O)n2)CC1 (stereo partly drawn) [I-71]	100 to 1000	–
Cn1c(=O)n(C2CCC(=O)NC2=O)c2cccc(CN3CCC(OCC4CCN(C[C@H]5CC[C@H](n6cc(NC(=O)c7coc(-c8ccnc(NCC9CC9)c8)n7)c(C(F)F)n6)CC5)CC4)CC3)c21 (stereo partly drawn) [I-248]	< 10	–
CN1CCN(c2ccn3ncc(C(=O)Nc4cn([C@H]5CC[C@H](CN6CCC(OCCCc7cccc8c7n(C)c(=O)n8C7CCC(=O)NC7=O)CC6)CC5)nc4C(F)F)c3c2)CC1 (stereo partly drawn) [I-258]	10 to 100	DC50 [2]: 10 to 100 nM
CN(CCOCC1CCN(c2ccc3c(c2)n(C)c(=O)n3C2CCC(=O)NC2=O)CC1)C[C@H]1CC[C@H](n2cc(NC(=O)c3coc(-c4ccnc(NCC5CC5)c4)n3)c(C(F)F)n2)CC1 (stereo partly drawn) [I-56]	100 to 1000	–
Cn1c(=O)n(C2CCC(=O)NC2=O)c2ccc(CCCOCCCCCN3CCC(n4cc(NC(=O)c5coc(-c6ccnc(NCC7CC7)c6)n5)c(C(F)F)n4)CC3)cc21 (stereo not drawn) [I-261]	< 10	DC50 [2]: < 10 nM
Cn1c(=O)n(C2CCC(=O)NC2=O)c2cccc(CN3CCC(CCCN4CCC(n5cc(NC(=O)c6coc(-c7ccnc(NCC8CC8)c7)n6)c(C(F)F)n5)CC4)CC3)c21 (stereo not drawn) [I-253]	10 to 100	–
CN(CCCOCC#Cc1cccc2c1n(C)c(=O)n2C1CCC(=O)NC1=O)C[C@H]1CC[C@H](n2cc(NC(=O)c3coc(-c4ccnc(NCC5CC5)c4)n3)c(C(F)F)n2)CC1 (stereo partly drawn) [I-88]	100 to 1000	–
CC(C)N(CCCOCCCc1cccc2c1n(C)c(=O)n2C1CCC(=O)NC1=O)C[C@H]1CC[C@H](n2cc(NC(=O)c3coc(-c4ccnc(NCC5CC5)c4)n3)c(C(F)F)n2)CC1 (stereo partly drawn) [I-63]	10 to 100	–

SMILES	DC50 [1] [nM]	also measured
CN(C[C@H]1CN(Cc2cccc3c2n(C)c(=O)n3C2CCC(=O)NC2=O)CCO1)C[C@H]1CC[C@H](n2cc(NC(=O)c3coc(-c4ccnc(NCC5CC5)c4)n3)c(C(F)F)n2)CC1 (stereo partly drawn) [I-77]	10 to 100	–
Cn1c(=O)n(C2CCC(=O)NC2=O)c2cccc(CCCOC3CCN(C[C@H]4CC[C@H](n5cc(NC(=O)c6cnn7cccnc67)c(C(F)F)n5)CC4)CC3)c21 (stereo partly drawn) [I-251]	100 to 1000	–
CN(CCOC(=O)NCc1ccc2c(c1)n(C)c(=O)n2C1CCC(=O)NC1=O)C[C@H]1CC[C@H](n2cc(NC(=O)c3coc(-c4ccnc(NCC5CC5)c4)n3)c(C(F)F)n2)CC1 (stereo partly drawn) [I-91]	100 to 1000	–
Cn1c(=O)n(C2CCC(=O)NC2=O)c2cccc(CN3CCC(CCN4CCC(n5cc(NC(=O)c6coc(-c7ccnc(NCC8CC8)c7)n6)c(C(F)F)n5)CC4)CC3)c21 (stereo not drawn) [I-264]	< 10	DC50 [2]: < 10 nM
O=C1CCC(N2C(=O)c3ccc(NCC4CC5(CCN(C[C@H]6CC[C@H](n7cc(NC(=O)c8cnn9ccc(N%10C[C@H]%11C[C@@H]%10CO%11)nc89)c(C(F)F)n7)CC6)CC5)C4)cc3C2=O)C(=O)N1 (stereo partly drawn) [I-556]	–	DC50 (OCI-LY10, 4 hrs, read-out: IRAK4 MSD degradation in OCI-LY10 at 4 hrs: DC50): 10 to 100 nM; DC50 (OCI-LY10, 24 hrs, read-out: IRAK4 MSD degradation in OCI-LY10 at 24 hrs: DC50): < 10 nM
O=C1CCC(n2c3cccc(CCCOCCOCCNC[C@H]4CC[C@H](n5cc(NC(=O)c6coc(-c7ccnc(NCC8CC8)c7)n6)c(C(F)F)n5)CC4)c3c3cccnc32)C(=O)N1 (stereo partly drawn) [I-93]	10 to 100	–
Cn1c(=O)n(C2CCC(=O)NC2=O)c2cccc(CCCOCCCCCN3CCC(n4cc(NC(=O)c5coc(-c6ccnc(NCC7CC7)c6)n5)c(C(F)F)n4)CC3)c21 (stereo not drawn) [I-262]	< 10	DC50 [2]: < 10 nM
CN(CC[C@@H]1CN(CCCc2ccc3c(c2)n(C)c(=O)n3C2CCC(=O)NC2=O)CCO1)C[C@H]1CC[C@H](n2cc(NC(=O)c3coc(-c4ccnc(NCC5CC5)c4)n3)c(C(F)F)n2)CC1 (stereo partly drawn) [I-97]	< 10	–
CN(CCOCCCc1cccc2c1N(C)C(=O)C2C1CCC(=O)NC1=O)CC[C@H]1CC[C@H](n2cc(NC(=O)c3coc(-c4ccnc(NCC5CC5)c4)n3)c(C(F)F)n2)CC1 (stereo partly drawn) [I-154]	10 to 100	DC50 [2]: 10 to 100 nM
Cn1c(=O)n(C2CCC(=O)NC2=O)c2ccc(CCCN3CCO[C@@H](CNC[C@H]4CC[C@H](n5cc(NC(=O)c6coc(-c7ccnc(NCC(F)(F)F)c7)n6)c(C(C)(C)O)n5)CC4)C3)cc21 (stereo partly drawn) [I-60]	10 to 100	–
Cn1c(=O)n(C2CCC(=O)NC2=O)c2ccc(CN3CCC(CCC(=O)N4CCC(n5cc(NC(=O)c6coc(-c7ccnc(NCC8CC8)c7)n6)c(C(F)F)n5)CC4)CC3)cc21 (stereo not drawn) [I-255]	10 to 100	DC50 [2]: < 10 nM
CN(CC[C@H]1CN(CCCc2ccc3c(c2)n(C)c(=O)n3C2CCC(=O)NC2=O)CCO1)C[C@H]1CC[C@H](n2cc(NC(=O)c3coc(-c4ccnc(NCC5CC5)c4)n3)c(C(F)F)n2)CC1 (stereo partly drawn) [I-96]	10 to 100	–
CN(CCCOCCCc1ccc2c(c1)n(C)c(=O)n2C1CCC(=O)NC1=O)C[C@H]1CC[C@H](n2cc(NC(=O)c3coc(-c4ccnc(NCC5CC5)c4)n3)c(C(C)(C)O)n2)CC1 (stereo partly drawn) [I-83]	100 to 1000	–
Cn1c(=O)n(C2CCC(=O)NC2=O)c2cccc(CN3CCC(OC4CCN(C[C@H]5CC[C@H](n6cc(NC(=O)c7coc(-c8ccnc(NCC9CC9)c8)n7)c(C(F)F)n6)CC5)CC4)CC3)c21 (stereo partly drawn) [I-256]	< 10	–
Cn1c(=O)n(C2CCC(=O)NC2=O)c2cccc(CCCOCCCN(C[C@H]3CC[C@H](n4cc(NC(=O)c5coc(-c6ccnc(NCC7CC7)c6)n5)c(C(F)F)n4)CC3)C3CC3)c21 (stereo partly drawn) [I-64]	100 to 1000	–
Cn1c(=O)n(C2CCC(=O)NC2=O)c2ccc(CN3CCC(CCO[C@H]4C[C@H](N(C)C[C@H]5CC[C@H](n6cc(NC(=O)c7coc(-c8ccnc(NCC9CC9)c8)n7)c(C(F)F)n6)CC5)C4)CC3)cc21 (stereo partly drawn) [I-238]	10 to 100	–
Cn1c(=O)n(C2CCC(=O)NC2=O)c2cccc(CCCO[C@@H]3CCN(C[C@H]4CC[C@H](n5cc(NC(=O)c6coc(-c7ccnc(NCC8CC8)c7)n6)c(C(F)F)n5)CC4)C3)c21 (stereo partly drawn) [I-73]	< 10	–
CN(CCCOCCCc1ccc2c(c1)oc(=O)n2C1CCC(=O)NC1=O)C[C@H]1CC[C@H](n2cc(NC(=O)c3coc(-c4ccnc(NCC5CC5)c4)n3)c(C(F)F)n2)CC1 (stereo partly drawn) [I-87]	< 10	–
